Laboratory results published in US20080125424A1, “Derivatives of urea and related diamines, methods for their manufacture, and uses therefor” (priority 2006, published 2008).

How the values were obtained:
Human Ca2+ receptor = target: T1, Human Ca2+ receptor (Homo sapiens, UniProt P41180); assay: Luciferase reporter assay in CHO cells (ET8-5-5) transfected with human Ca2+ receptor; type: cell-based; conditions: CHO ET8-5-5 cells, 5 h incubation with test compound
T1 construct: expressed in transfected cells
T1 sequence (P41180 20-1078): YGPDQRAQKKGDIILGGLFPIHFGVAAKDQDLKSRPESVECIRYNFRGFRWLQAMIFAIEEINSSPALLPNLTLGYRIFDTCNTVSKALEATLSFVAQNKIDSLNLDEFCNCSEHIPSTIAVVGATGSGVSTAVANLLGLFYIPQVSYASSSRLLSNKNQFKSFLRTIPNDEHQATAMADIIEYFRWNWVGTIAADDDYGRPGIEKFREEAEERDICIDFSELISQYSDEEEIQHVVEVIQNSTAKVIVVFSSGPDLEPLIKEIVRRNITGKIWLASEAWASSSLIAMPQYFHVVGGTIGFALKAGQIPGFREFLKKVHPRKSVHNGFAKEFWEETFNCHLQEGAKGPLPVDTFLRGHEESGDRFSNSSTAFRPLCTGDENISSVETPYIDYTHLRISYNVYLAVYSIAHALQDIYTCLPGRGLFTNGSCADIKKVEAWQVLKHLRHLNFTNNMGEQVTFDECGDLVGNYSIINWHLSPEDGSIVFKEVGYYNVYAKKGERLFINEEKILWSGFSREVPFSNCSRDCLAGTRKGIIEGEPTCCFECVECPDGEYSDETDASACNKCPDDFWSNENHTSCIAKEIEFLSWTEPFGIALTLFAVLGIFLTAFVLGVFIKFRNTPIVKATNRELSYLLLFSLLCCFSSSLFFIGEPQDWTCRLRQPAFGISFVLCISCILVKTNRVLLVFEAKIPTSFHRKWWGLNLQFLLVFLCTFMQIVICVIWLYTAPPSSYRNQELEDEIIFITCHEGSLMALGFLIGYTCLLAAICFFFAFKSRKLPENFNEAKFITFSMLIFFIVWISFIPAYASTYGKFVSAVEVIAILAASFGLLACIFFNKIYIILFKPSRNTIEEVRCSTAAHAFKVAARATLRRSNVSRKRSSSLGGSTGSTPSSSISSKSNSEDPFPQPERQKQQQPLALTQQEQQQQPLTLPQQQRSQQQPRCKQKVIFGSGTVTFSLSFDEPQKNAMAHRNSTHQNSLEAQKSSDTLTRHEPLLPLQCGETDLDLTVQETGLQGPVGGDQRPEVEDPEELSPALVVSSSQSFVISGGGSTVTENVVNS
Protocol: The activities of the compounds of the present invention on calcium receptors were measured in accordance with the method described hereinbelow.
Human Ca^2+ receptor cDNA was subcloned into the mammalian expression vector PECE as described in Ellis, L et al. (1986) Cell vol. 45, 721-732. The luciferase reporter was subcloned into the mammalian expression vector pGL3basic (Promega). Resistance to neomycin (pSV2-neo) and resistance to puromycin (pSG5-puro) were used as selection markers. All these plasmids were simultaneously transfected into CHO cells by calcium phosphate precipitation. Transfected cells were grown in F12 medium containing 7.5% foetal bovine serum, 100 U/ml penicillin and 100 μg/ml streptomycin (as 1% Pen-Strep, BioWithaker), neomycin (750 μg/ml) and puromycin (5 μg/ml). Neomycin and puromycin resistant colonies were subcloned and assayed for activation against a range of calcium concentration. Clone 8-5-5 was used to assess the effects of compounds on [Ca^2+]i. This stably transfected cell line was termed ET8-5-5.
For measurements of [Ca^2+]i, the cells were recovered from tissue culture flasks by brief treatment with Trypsin-EDTA (Invitrogen; containing 0.53 mM EDTA.4Na in HBSS) and then seeded in culture-treated 96-well plates (Greiner) at 50 k cells per well in the growth media (same as above, except neomycin 400 μg/ml). Cells were grown in 37° C. TC incubator for 24 h. The culture medium was then removed and replaced with F12 medium, 1% Pen-Strep for an overnight foetal bovine serum starvation in 37° C. TC incubator. Then the starvation medium was removed and replaced with a test buffer (20 mM HEPES pH 7.4, 125 mM NaCl, 5 mM KCl, 1 mM MgCl2, 5.5 mM Glucose, 2 g/l lysosyme and 0.3 mM CaCl2) supplemented with a range of test compound concentrations crossed against a super-added range of CaCl2 concentrations. The cells were incubated with the test compounds for 5 h in 37° C. TC incubator. Then the test buffer was discarded, and cells were added with the substrate for Luciferase from SteadyLite Kit (Perkin-Elmer). The luminescence was recorded.

[1] = target: T2, human parathyroid cell Ca2+ receptor (hPCaR) (Homo sapiens, UniProt P41180); assay: [Ca2+]i fluorescence assay in HEK 293 4.0-7 cells expressing hPCaR; type: cell-based; conditions: buffer with 1 mM CaCl2
T2 construct: expressed in transfected cells
T2 sequence (P41180 20-1078): T1 sequence (P41180 20-1078)
In short: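 HEK 293 clone 4.0-7 stably expressing human parathyroid Ca2+ receptor, seeded overnight, then loaded 90 min at room temperature with calcium dye in parathyroid cell buffer (pH 7.45) with 0.5% BSA and 1 mM CaCl2. Fluorescence after compound addition read at ex 485/em 530 nm.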

Row | EC50 (Human Ca2+ receptor) [nM] | EC50 [1] [nM] | Compound
1 | 100 to 1000 |  | COC(=O)c1ccccc1S(=O)(=O)NCCN(CCC(c1ccccc1)c1ccccc1)C(=O)Nc1nc2ccccc2s1 [Example 171, 2-{2-[3-Benzothiazol-2-yl-1-(3,3-diphenyl-propyl)-ureido]-ethylsulfamoyl}-benzoic acid methyl ester]
2 | 100 to 1000 |  | COc1ccc(S(=O)(=O)NCCN(CCC(c2ccccc2)c2ccccc2)C(=O)Nc2nc3ccccc3s2)cc1 [Example 172, N-{2-[3-Benzothiazol-2-yl-1-(3,3-diphenylpropyl)-ureido]-ethyl}-4-methoxybenzenesulfonamide]
3 | 100 to 1000 |  | O=C(Nc1nc2ccccc2s1)N(CCNS(=O)(=O)c1ccc(C(F)(F)F)cc1)CCC(c1ccccc1)c1ccccc1 [Example 173, N-{2-[3-Benzothiazol-2-yl-1-(3,3-diphenylpropyl)-ureido]-ethyl}-4-trifluoromethyl-benzenesulfonamide]
4 |  | 1000 to 5000 | C[C@@H]1CNCCN1C(=O)CCN(CCC(c1ccccc1)c1ccccc1)C(=O)Nc1nc2ccccc2s1 [Example 120, (R)-3-(benzo[d]thiazol-2-yl)-1-(3,3-diphenylpropyl)-1-(3-(2-methylpiperazin-1-yl)-3-oxopropyl)urea]
5 |  | 100 to 1000 | O=C(CCN(CCC(c1ccccc1)c1ccccc1)C(=O)Nc1nc2ccccc2s1)NCc1ccccc1 [Example 117, 3-(benzo[d]thiazol-2-yl)-1-(3-(benzylamino)-3-oxopropyl)-1-(3,3-diphenylpropyl)urea]

Continued, compound first:

Row | Compound | EC50 (Human Ca2+ receptor) [nM] | EC50 [1] [nM]
6 | O=C(O)CCCN(CCC(c1ccccc1)c1ccccc1)C(=O)Nc1cccc(C(=O)O)c1 [Example 65, 3-[3-(3-carboxy-propyl)-3-(3,3-diphenyl-propyl)-ureido]-benzoic acid] | 1000 to 10000 | 
7 | CCOC(=O)CCCN(CCC(c1ccccc1)c1ccccc1)C(=O)Nc1cccc(C(=O)OC)c1 [Example 64, 3-[3-(3,3-diphenyl-propyl)-3-(3-ethoxycarbonyl-propyl)-ureido]-benzoic acid methyl ester] | < 100 | 
8 | O=C(O)CN(CCC(c1ccccc1)c1ccccc1)C(=O)Nc1cccc(C(=O)O)c1 [Example 66, 3-[3-carboxymethyl-3-(3,3-diphenyl-propyl)-ureido]-benzoic acid] | 1000 to 10000 | 
9 | COC(=O)c1cccc(NC(=O)N(CCC(c2ccccc2)c2ccccc2)CC(=O)OC(C)(C)C)c1 [Example 63, 3-[3-tert-butoxycarbonylmethyl-3-(3,3-diphenyl-propyl)-ureido]-benzoic acid methyl ester] | 100 to 1000 | 
10 | O=C(CCCN(CCC(c1ccccc1)c1ccccc1)C(=O)Nc1nc2ccccc2s1)N[C@@H]1CCCNC1 [Example 71, (R)-3-(benzo[d]thiazol-2-yl)-1-(3,3-diphenylpropyl)-1-(4-oxo-4-(piperidin-3-ylamino)butyl)urea] |  | < 100
